Assay results published in patent US12365696B2, “Small-molecule focal adhesion kinase (FAK) inhibitors” (DANA-FARBER CANCER INSTITUTE, INC., priority 2019, dated 2025).
Like-named read-outs stand apart in the source and are kept apart here.

What was measured:
Assay in all cases: KINOMEscan
Assay type in all cases: binding
[1] = molecular target: ABL1(F317I)-phosphorylated (Homo sapiens (Human), UniProt P00519, F317I); details: 10000 nM, read-out: Percent Control
[2] = molecular target: ABL1(M351T)-phosphorylated (Homo sapiens (Human), UniProt P00519, M351T); details: 10000 nM, read-out: Percent Control
[3] = molecular target: ADCK3 (Homo sapiens (Human), UniProt Q8NI60); details: ADCK3, 10000 nM; read-out: Percent Control
[4] = molecular target: ANKK1 (Homo sapiens (Human), UniProt Q8NFD2); details: ANKK1, 10000 nM; read-out: Percent Control
[5] = molecular target: DYRK1A (Homo sapiens (Human), UniProt Q13627); details: 10000 nM, read-out: Percent Control
[6] = molecular target: EGFR(E746-A750del) (Homo sapiens (Human), UniProt P00533, DEL746-750); details: 10000 nM, read-out: Percent Control
[7] = tested on: FLT3(ITD); details: 10000 nM
[8] = tested on: FLT3(ITD, D835V); details: 10000 nM
[9] = molecular target: HIPK1 (Homo sapiens (Human), UniProt Q86Z02); details: HIPK1, 10000 nM; read-out: Percent Control
[10] = molecular target: JAK3(JH1domain-catalytic) (Homo sapiens (Human), UniProt P52333); details: 10000 nM, read-out: Percent Control
[11] = molecular target: JNK2 (Homo sapiens (Human), UniProt P45984); details: JNK2, 10000 nM; read-out: Percent Control
[12] = molecular target: KIT(A829P) (Homo sapiens (Human), UniProt P10721, A829P); details: 10000 nM, read-out: Percent Control
[13] = molecular target: KIT(L576P) (Homo sapiens (Human), UniProt P10721, L576P); details: 10000 nM, read-out: Percent Control
[14] = molecular target: MAPKAPX5 (Homo sapiens (Human), UniProt Q8IW41); details: read-out: Percent Control
[15] = molecular target: MINK (Homo sapiens (Human), UniProt Q8N4C8); details: 10000 nM, read-out: Percent Control
[16] = molecular target: MKNK1 (Homo sapiens (Human), UniProt Q9BUB5); details: MKNK1, 10000 nM; read-out: Percent Control
[17] = molecular target: MLK3 (Homo sapiens (Human), UniProt Q16584); details: MLK3, 10000 nM; read-out: Percent Control
[18] = molecular target: NEK9 (Homo sapiens (Human), UniProt Q8TD19); details: NEK9, 10000 nM; read-out: Percent Control
[19] = molecular target: NLK (Homo sapiens (Human), UniProt Q9UBE8); details: 10000 nM, read-out: Percent Control
[20] = molecular target: PDGFRA (Homo sapiens (Human), UniProt P16234); details: 10000 nM, read-out: Percent Control
[21] = molecular target: PFCDPK1(P. falciparum) (Plasmodium falciparum (isolate 3D7), UniProt P62344); details: 10000 nM, read-out: Percent Control
[22] = molecular target: PIK3CA(C420R) (Homo sapiens (Human), UniProt P42336, C420R); details: 10000 nM, read-out: Percent Control
[23] = molecular target: PRKD3 (Homo sapiens (Human), UniProt O94806); details: PRKD3, 10000 nM; read-out: Percent Control
[24] = molecular target: RET(V804M) (Homo sapiens (Human), UniProt P07949, V804M); details: 10000 nM, read-out: Percent Control
[25] = molecular target: RIPK2 (Homo sapiens (Human), UniProt O43353); details: RIPK2, 10000 nM; read-out: Percent Control
[26] = molecular target: (Homo sapiens (Human), UniProt P57078); details: read-out: Percent Control
[27] = molecular target: ROCK2 (Homo sapiens (Human), UniProt O75116); details: ROCK2, 10000 nM; read-out: Percent Control
[28] = molecular target: RSK1(Kin.Dom.2-C-terminal) (Homo sapiens (Human), UniProt Q15418); details: 10000 nM, read-out: Percent Control
[29] = molecular target: TGFBR2 (Homo sapiens (Human), UniProt P37173); details: TGFBR2, 10000 nM; read-out: Percent Control
[30] = molecular target: TLK2 (Homo sapiens (Human), UniProt Q86UE8); details: TLK2, 10000 nM; read-out: Percent Control
[31] = molecular target: VEGFR2 (Homo sapiens (Human), UniProt P35968); details: VEGFR2, 10000 nM; read-out: Percent Control
[32] = molecular target: VPS34 (Homo sapiens (Human), UniProt Q8NEB9); details: VPS34, 10000 nM; read-out: Percent Control
[33] = molecular target: VRK2 (Homo sapiens (Human), UniProt Q86Y07); details: VRK2, 10000 nM; read-out: Percent Control
[34] = molecular target: YSK1 (Homo sapiens (Human), UniProt O00506); details: YSK1, 10000 nM; read-out: Percent Control

HIPK1, sequence (Q86Z02 whole entry): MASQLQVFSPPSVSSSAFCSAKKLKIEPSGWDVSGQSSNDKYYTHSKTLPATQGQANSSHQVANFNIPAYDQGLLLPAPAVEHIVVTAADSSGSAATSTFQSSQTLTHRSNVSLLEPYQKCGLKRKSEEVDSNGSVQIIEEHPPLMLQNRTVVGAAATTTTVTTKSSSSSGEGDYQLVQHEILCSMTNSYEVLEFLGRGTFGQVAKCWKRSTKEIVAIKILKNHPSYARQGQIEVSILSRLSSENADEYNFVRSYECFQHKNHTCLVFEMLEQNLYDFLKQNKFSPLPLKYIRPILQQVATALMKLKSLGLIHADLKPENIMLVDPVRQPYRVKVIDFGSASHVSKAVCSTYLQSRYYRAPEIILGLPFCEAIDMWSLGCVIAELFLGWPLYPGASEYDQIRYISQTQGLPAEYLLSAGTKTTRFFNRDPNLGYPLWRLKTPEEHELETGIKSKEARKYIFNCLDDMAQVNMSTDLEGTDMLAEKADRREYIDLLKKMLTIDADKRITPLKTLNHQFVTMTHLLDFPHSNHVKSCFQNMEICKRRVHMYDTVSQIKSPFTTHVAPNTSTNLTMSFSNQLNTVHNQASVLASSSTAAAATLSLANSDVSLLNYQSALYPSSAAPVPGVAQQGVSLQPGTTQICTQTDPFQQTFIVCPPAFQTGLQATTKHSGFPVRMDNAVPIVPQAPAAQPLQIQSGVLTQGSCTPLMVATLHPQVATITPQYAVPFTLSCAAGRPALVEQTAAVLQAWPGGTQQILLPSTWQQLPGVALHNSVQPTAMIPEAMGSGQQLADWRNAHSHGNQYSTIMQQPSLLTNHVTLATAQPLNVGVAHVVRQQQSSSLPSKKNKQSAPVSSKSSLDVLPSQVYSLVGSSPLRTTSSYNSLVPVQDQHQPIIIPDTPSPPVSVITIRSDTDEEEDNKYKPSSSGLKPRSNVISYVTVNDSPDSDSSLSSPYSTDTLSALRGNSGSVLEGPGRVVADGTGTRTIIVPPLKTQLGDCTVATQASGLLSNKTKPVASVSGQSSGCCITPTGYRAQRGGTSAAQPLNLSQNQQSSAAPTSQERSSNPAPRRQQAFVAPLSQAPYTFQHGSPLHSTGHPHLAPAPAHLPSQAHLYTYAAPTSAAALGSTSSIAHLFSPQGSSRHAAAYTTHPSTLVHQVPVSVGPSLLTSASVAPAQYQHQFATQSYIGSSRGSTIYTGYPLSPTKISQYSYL
JNK2, sequence (P45984 whole entry): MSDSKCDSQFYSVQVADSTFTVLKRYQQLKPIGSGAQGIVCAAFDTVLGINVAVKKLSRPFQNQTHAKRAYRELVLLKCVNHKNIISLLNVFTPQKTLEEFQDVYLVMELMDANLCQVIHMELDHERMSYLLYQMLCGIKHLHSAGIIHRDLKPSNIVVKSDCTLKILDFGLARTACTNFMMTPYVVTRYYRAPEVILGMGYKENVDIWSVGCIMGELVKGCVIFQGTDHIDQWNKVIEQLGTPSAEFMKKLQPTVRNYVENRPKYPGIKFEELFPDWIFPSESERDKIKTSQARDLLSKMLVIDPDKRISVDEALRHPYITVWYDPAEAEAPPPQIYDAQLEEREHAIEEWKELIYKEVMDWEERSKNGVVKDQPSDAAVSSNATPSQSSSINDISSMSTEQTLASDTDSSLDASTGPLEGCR
RET(V804M), sequence (P07949 29-1114 V804M): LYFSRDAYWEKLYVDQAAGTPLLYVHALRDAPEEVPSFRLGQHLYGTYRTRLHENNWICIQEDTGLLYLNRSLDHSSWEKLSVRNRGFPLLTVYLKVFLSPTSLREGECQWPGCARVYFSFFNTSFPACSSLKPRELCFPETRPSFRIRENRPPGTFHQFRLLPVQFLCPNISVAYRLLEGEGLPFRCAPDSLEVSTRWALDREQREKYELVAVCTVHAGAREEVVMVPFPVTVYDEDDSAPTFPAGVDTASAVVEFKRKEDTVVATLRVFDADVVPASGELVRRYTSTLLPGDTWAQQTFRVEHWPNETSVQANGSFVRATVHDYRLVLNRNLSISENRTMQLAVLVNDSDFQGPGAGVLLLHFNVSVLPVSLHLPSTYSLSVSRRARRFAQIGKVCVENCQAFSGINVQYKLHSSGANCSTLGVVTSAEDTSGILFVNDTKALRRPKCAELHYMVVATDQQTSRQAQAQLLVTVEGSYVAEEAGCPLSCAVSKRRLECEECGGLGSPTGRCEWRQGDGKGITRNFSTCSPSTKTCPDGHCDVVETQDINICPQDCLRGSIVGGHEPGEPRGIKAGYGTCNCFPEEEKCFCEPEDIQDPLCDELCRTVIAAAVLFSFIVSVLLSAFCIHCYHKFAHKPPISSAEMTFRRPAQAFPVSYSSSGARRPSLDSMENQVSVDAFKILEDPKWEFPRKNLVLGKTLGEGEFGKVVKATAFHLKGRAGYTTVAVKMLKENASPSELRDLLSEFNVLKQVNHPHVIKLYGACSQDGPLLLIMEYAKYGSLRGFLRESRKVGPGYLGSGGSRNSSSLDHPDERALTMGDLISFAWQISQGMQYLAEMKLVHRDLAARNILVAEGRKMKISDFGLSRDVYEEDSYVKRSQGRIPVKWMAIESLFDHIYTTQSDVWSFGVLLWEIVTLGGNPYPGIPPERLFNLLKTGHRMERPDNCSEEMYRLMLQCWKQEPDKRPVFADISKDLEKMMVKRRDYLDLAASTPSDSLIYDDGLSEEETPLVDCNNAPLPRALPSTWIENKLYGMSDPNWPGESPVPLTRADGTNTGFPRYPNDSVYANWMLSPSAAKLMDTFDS
PIK3CA(C420R), sequence (P42336 whole entry C420R): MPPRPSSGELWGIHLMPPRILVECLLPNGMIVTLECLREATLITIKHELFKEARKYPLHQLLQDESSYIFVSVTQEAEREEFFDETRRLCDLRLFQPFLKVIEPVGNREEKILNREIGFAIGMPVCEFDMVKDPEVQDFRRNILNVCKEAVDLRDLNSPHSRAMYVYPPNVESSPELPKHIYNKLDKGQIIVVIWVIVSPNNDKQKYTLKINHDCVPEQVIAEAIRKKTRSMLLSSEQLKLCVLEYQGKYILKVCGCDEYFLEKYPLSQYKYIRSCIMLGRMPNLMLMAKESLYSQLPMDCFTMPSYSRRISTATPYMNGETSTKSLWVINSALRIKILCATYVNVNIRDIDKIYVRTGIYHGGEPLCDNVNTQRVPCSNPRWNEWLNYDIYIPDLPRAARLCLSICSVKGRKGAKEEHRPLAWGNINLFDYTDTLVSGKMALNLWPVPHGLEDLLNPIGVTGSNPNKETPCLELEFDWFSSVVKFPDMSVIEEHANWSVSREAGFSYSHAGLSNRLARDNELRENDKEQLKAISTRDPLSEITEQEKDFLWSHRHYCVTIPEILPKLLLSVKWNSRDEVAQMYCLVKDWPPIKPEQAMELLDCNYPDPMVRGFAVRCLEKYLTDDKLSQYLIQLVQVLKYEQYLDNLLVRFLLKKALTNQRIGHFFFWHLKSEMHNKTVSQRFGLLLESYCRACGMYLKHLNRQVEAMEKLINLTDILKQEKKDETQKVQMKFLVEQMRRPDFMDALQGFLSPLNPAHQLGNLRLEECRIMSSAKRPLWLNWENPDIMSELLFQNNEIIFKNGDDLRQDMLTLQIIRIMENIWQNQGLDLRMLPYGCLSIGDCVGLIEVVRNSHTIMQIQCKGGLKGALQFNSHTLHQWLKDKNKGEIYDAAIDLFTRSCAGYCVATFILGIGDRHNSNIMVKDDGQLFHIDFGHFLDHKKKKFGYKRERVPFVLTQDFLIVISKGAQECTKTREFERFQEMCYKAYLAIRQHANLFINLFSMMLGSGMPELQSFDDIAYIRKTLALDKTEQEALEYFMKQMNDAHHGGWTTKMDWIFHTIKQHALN
RIPK2, sequence (O43353 whole entry): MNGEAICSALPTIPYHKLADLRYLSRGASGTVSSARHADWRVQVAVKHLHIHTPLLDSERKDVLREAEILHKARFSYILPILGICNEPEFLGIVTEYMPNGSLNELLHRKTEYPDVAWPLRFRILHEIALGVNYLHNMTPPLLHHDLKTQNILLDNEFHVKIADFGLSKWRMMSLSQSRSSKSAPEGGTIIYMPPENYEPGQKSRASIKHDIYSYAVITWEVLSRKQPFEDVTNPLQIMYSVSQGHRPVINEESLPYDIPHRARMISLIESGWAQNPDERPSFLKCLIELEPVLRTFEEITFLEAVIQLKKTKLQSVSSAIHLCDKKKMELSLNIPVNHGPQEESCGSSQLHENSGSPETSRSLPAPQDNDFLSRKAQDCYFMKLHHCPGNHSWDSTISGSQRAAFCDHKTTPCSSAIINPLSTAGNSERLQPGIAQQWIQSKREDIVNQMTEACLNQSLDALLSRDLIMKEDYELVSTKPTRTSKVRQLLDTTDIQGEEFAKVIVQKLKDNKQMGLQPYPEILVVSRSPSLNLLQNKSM
MKNK1, sequence (Q9BUB5 whole entry): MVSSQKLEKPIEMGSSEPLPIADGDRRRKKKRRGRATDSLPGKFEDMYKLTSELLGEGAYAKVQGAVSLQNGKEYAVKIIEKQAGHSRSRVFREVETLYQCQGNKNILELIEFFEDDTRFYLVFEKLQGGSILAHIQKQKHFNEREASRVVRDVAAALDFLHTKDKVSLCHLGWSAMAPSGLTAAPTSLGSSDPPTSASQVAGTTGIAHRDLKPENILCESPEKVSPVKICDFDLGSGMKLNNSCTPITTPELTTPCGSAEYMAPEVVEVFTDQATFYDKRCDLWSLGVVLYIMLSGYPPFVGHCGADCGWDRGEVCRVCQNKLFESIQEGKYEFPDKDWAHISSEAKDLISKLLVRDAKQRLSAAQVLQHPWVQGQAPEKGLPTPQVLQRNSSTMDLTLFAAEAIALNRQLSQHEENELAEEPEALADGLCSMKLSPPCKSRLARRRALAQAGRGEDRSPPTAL
RSK1(Kin.Dom.2-C-terminal), sequence (Q15418 418-675): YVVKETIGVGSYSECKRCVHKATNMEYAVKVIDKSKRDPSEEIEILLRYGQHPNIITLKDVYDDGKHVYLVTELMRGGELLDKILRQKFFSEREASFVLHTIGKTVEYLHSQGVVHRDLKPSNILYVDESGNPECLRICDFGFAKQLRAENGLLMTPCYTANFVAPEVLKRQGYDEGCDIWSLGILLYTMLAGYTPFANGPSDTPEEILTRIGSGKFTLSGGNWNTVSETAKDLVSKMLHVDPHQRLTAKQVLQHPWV

Compound	remaining binding at 10 µM [1]	remaining binding at 10 µM [2]	remaining binding at 10 µM [3]	remaining binding at 10 µM [4]	remaining binding at 10 µM [5]	remaining binding at 10 µM [6]	Percent Control [7]	Percent Control [8]	remaining binding at 10 µM [9]	remaining binding at 10 µM [10]	remaining binding at 10 µM [11]	remaining binding at 10 µM [12]	remaining binding at 10 µM [13]	remaining binding at 10 µM [15]	remaining binding at 10 µM [16]	remaining binding at 10 µM [17]	remaining binding at 10 µM [18]	remaining binding at 10 µM [19]	remaining binding at 10 µM [20]	remaining binding at 10 µM [21]	also measured
COc1cc(N2CCC(N3CCN(C)CC3)CC2)ccc1Nc1ncc2c(n1)N(C)c1sc(C)nc1C(=O)N2 [Compound 3, 6-((2-methoxy-4-(4-(4-methylpiperazin-1-yl)piperidin-1-yl)phenyl)amino)-2,4-dimethyl-4,9-dihydro-10H-pyrimido[5,4-b]thiazolo[5,4-e][1,4]diazepin-10-one]	14%	19%	54%	80%	100%	67%	83%	100%	83%	83%	100%	47%	47%	100%	100%	73%	84%	59%	100%	100%	remaining binding at 10 µM ([14]; MAPKAPX5, 10000 nM): 100%; remaining binding at 10 µM [22]: 90%; remaining binding at 10 µM [23]: 75%; remaining binding at 10 µM [24]: 100%; remaining binding at 10 µM [25]: 88%; remaining binding at 10 µM ([26]; PIPK4, 10000 nM): 100%; remaining binding at 10 µM [27]: 100%; remaining binding at 10 µM [28]: 81%; remaining binding at 10 µM [29]: 96%; remaining binding at 10 µM [30]: 100%; remaining binding at 10 µM [31]: 100%; remaining binding at 10 µM [32]: 100%; remaining binding at 10 µM [33]: 91%; remaining binding at 10 µM [34]: 79%
COc1cc(N2CCC(N3CCN(C)CC3)CC2)ccc1Nc1ncc2c(n1)N(C)c1sc(C)nc1C(=O)N2C [Compound 5, 6-((2-methoxy-4-(4-(4-methylpiperazin-1-yl)piperidin-1-yl)phenyl)amino)-2,4,9-trimethyl-4,9-dihydro-10H-pyrimido[5,4-b]thiazolo[5,4-e][1,4]diazepin-10-one]	26%	95%	88%	92%	87%	79%	100%	100%	94%	100%	98%	100%	100%	100%	96%	100%	100%	93%	88%	99%	remaining binding at 10 µM ([14]; MAPKAPK5, 10000 nM): 93%; remaining binding at 10 µM [22]: 100%; remaining binding at 10 µM [23]: 34%; remaining binding at 10 µM [24]: 73%; remaining binding at 10 µM [25]: 95%; remaining binding at 10 µM ([26]; RIPK4, 10000 nM): 100%; remaining binding at 10 µM [27]: 100%; remaining binding at 10 µM [28]: 55%; remaining binding at 10 µM [29]: 98%; remaining binding at 10 µM [30]: 100%; remaining binding at 10 µM [31]: 95%; remaining binding at 10 µM [32]: 89%; remaining binding at 10 µM [33]: 97%; remaining binding at 10 µM [34]: 100%
